Data reported in ChEMBL document CHEMBL1629695, “A novel polymyxin derivative that lacks the fatty acid tail and carries only three positive charges has strong synergism with agents excluded by the intact outer membrane” (Antimicrob Agents Chemother, 2010).
≈ marks a conversion by molar mass, not a printed value. Calls of active or inactive are those of the source. The calls are words filed in the database; no cut-off is given here. Bridge positions count the residues as written; N and C are the ends. Square brackets hold non-standard residues; d marks the D form. Peptide text beside a SMILES is read from it. Dab = NCC[C@H](N)C(=O)O

Legend:
Escherichia coli [1] = assay: Antimicrobial activity against Escherichia coli ATCC 25922; format: functional
Escherichia coli [2] = assay: Antimicrobial activity against Escherichia coli ATCC 25922 in presence of 2 ug/ml NAB741; format: functional
Escherichia coli [3] = assay: Antimicrobial activity against Escherichia coli ATCC 25922 in presence of 4 ug/ml NAB741; format: functional
Escherichia coli [4] = assay: Antimicrobial activity against Escherichia coli ATCC 25922 in presence of 8 ug/ml NAB741; format: functional
Escherichia coli [5] = assay: Antimicrobial activity against Escherichia coli ATCC 25922 in presence of […] ug/ml NAB741; format: functional
Escherichia coli [6] = assay: Antimicrobial activity against Escherichia coli ATCC 25922 in presence of 32 ug/ml NAB741; format: functional
Escherichia coli [7] = assay: Antimicrobial activity against Escherichia coli ATCC 25922 by Etest method; format: functional
Escherichia coli [8] = assay: Antimicrobial activity against Escherichia coli ATCC 25922 by Etest method in presence of 2 ug/ml NAB741; format: functional
Escherichia coli [9] = assay: Antimicrobial activity against Escherichia coli ATCC 25922 by Etest method in presence of 4 ug/ml NAB741; format: functional
Escherichia coli [10] = assay: Antimicrobial activity against in Escherichia coli ATCC 25922 in presence of NAB741; format: functional
Escherichia coli [11] = assay: Antimicrobial activity against Escherichia coli IH3080 by Etest method; format: functional
Escherichia coli [12] = assay: Antimicrobial activity against Escherichia coli IH3080 by Etest method in presence of 2 ug/ml NAB741; format: functional
Escherichia coli [13] = assay: Antimicrobial activity against Escherichia coli IH3080 by Etest method in presence of 4 ug/ml NAB741; format: functional
Escherichia coli [14] = assay: Antimicrobial activity against in Escherichia coli IH3080 in presence of NAB741; format: functional
Klebsiella pneumoniae [15] = assay: Antimicrobial activity against Klebsiella pneumoniae ATCC 13883 by Etest method; format: functional
Klebsiella pneumoniae [16] = assay: Antimicrobial activity against Klebsiella pneumoniae ATCC 13883 by Etest method in presence of 2 ug/ml NAB741; format: functional
Klebsiella pneumoniae [17] = assay: Antimicrobial activity against Klebsiella pneumoniae ATCC 13883 by Etest method in presence of 4 ug/ml NAB741; format: functional
Klebsiella pneumoniae [18] = assay: Antimicrobial activity against in Klebsiella pneumoniae ATCC 13883 in presence of NAB741; format: functional
Enterobacter cloacae [19] = assay: Antimicrobial activity against Enterobacter cloacae ATCC 23355 by Etest method; format: functional
Enterobacter cloacae [20] = assay: Antimicrobial activity against Enterobacter cloacae ATCC 23355 by Etest method in presence of 2 ug/ml NAB741; format: functional
Enterobacter cloacae [21] = assay: Antimicrobial activity against Enterobacter cloacae ATCC 23355 by Etest method in presence of 4 ug/ml NAB741; format: functional
Enterobacter cloacae [22] = assay: Antimicrobial activity against in Enterobacter cloacae ATCC 23355 in presence of NAB741; format: functional
Acinetobacter baumannii [23] = assay: Antimicrobial activity against Acinetobacter baumannii ATCC 19606 by Etest method; format: functional
Acinetobacter baumannii [24] = assay: Antimicrobial activity against Acinetobacter baumannii ATCC 19606 by Etest method in presence of 2 ug/ml NAB741; format: functional
Acinetobacter baumannii [25] = assay: Antimicrobial activity against Acinetobacter baumannii ATCC 19606 by Etest method in presence of 4 ug/ml NAB741; format: functional
Acinetobacter baumannii [26] = assay: Antimicrobial activity against in Acinetobacter baumannii ATCC 19606 in presence of NAB741; format: functional
Escherichia coli [27] = assay: Ratio of MIC for Escherichia coli ATCC 25922 to MIC for Escherichia coli ATCC 25922 in presence of 4 ug/ml of NAB741; format: functional
Escherichia coli [28] = assay: Ratio of MIC for Escherichia coli IH3080 to MIC for Escherichia coli IH3080 in presence of 4 ug/ml of NAB741; format: functional
Klebsiella pneumoniae [29] = assay: Ratio of MIC for Klebsiella pneumoniae ATCC 13883 to MIC for Klebsiella pneumoniae ATCC 13883 in presence of 4 ug/ml of NAB741; format: functional
Enterobacter cloacae [30] = assay: Ratio of MIC for Enterobacter cloacae ATCC 23355 to MIC for Enterobacter cloacae ATCC 23355 in presence of 4 ug/ml of NAB741; format: functional
Acinetobacter baumannii [31] = assay: Ratio of MIC for Acinetobacter baumannii ATCC 19606 to MIC for Acinetobacter baumannii ATCC 19606 in presence of 4 ug/ml of NAB741; format: functional
V79 = assay: Cytotoxicity against Chinese hamster V79 cells at 0.25 ug/ml to 128 ug/ml after 24 hrs; format: cell-based, Cricetulus griseus; settings: v79, 24 h
[32] = Plasma concentration in Sprague-Dawley rat at 1 mg/kg, iv administered after 10 minutes; format: ADME, organism-based; parameters: dose 1 mg/kg, route intravenous
[33] = (§1) Half-life in Sprague-Dawley rat at 1 mg/kg, iv; format: ADME, organism-based; parameters: dose 1 mg/kg, route intravenous; settings: Sprague-Dawley, in vivo
[34] = (§2) Volume of distribution in Sprague-Dawley rat at 1 mg/kg, iv; format: ADME, organism-based; parameters: dose 1 mg/kg, route intravenous; settings: Sprague-Dawley, in vivo
[35] = Total body clearance in Sprague-Dawley rat at 1 mg/kg, iv; format: ADME, organism-based; parameters: dose 1 mg/kg, route intravenous; settings: in vivo
[36] = (§3) Drug level in Sprague-Dawley rat urine at 1 mg/kg, iv; format: ADME, organism-based; parameters: dose 1 mg/kg, route intravenous; settings: Sprague-Dawley, urine, read-out: Drug uptake
[37] = Renal clearance in Sprague-Dawley rat at 1 mg/kg, iv; format: ADME, organism-based, Kidney; parameters: dose 1 mg/kg, route intravenous; settings: in vivo, read-out: CL_renal
Escherichia coli [38] = assay: Antimicrobial activity against Escherichia coli IH3080 assessed as zone of inhibition at 10 ug after 18 hrs by disk diffusion method; format: functional
Escherichia coli [39] = assay: Antimicrobial activity against Escherichia coli IH3080 assessed as zone of inhibition at 10 ug after 18 hrs by disk diffusion method in presence of 1 ug/ml rifampin; format: functional
Acinetobacter baumannii [40] = assay: Antimicrobial activity against Acinetobacter baumannii ATCC 19606 assessed as zone of inhibition at 10 ug after 18 hrs by disk diffusion method; format: functional
Acinetobacter baumannii [41] = assay: Antimicrobial activity against Acinetobacter baumannii ATCC 19606 assessed as zone of inhibition at 10 ug after 18 hrs by disk diffusion method in presence of 1 ug/ml rifampin; format: functional
Pseudomonas aeruginosa [42] = assay: Antimicrobial activity against Pseudomonas aeruginosa ATCC 27853 assessed as zone of inhibition at 10 ug after 18 hrs by disk diffusion method; format: functional
Pseudomonas aeruginosa [43] = assay: Antimicrobial activity against Pseudomonas aeruginosa ATCC 27853 assessed as zone of inhibition at 10 ug after 18 hrs by disk diffusion method in presence of 1 ug/ml rifampin; format: functional
Escherichia coli [44] = assay: Antimicrobial activity against Escherichia coli F19; format: functional
Enterobacter cloacae [45] = assay: Antimicrobial activity against Enterobacter cloacae ATCC 23355 at 16 ug/ml; format: functional, organism-based
Rattus norvegicus [46] = assay: as §1; format: ADME, organism-based; parameters: dose 1 mg/kg, route intravenous; settings: in vivo
Rattus norvegicus [47] = assay: as §2; format: ADME, organism-based; parameters: dose 1 mg/kg, route intravenous; settings: in vivo
Rattus norvegicus [48] = assay: as §3; format: ADME, organism-based; parameters: dose 1 mg/kg, route intravenous; settings: in vivo

CC[C@H]1OC(=O)[C@H](C)[C@@H](O[C@H]2C[C@@](C)(OC)[C@@H](O)[C@H](C)O2)[C@H](C)[C@@H](O[C@@H]2O[C@H](C)C[C@H](N(C)C)[C@H]2O)[C@](C)(OC)C[C@@H](C)C(=O)[C@H](C)[C@@H](O)[C@]1(C)O [CLARITHROMYCIN]
MIC (Escherichia coli [1]): ≥ 64 µg/mL | MIC (Escherichia coli [2]): 32 µg/mL | MIC (Escherichia coli [3]): 1 µg/mL | MIC (Escherichia coli [4]): 0.5 µg/mL | MIC (Escherichia coli [5]): 0.25 µg/mL | MIC (Escherichia coli [6]): 0.063 µg/mL | MIC (Escherichia coli [7]): 16 µg/mL (≈ 21.4 µM) | MIC (Escherichia coli [8]): 0.5 µg/mL | MIC (Escherichia coli [9]): 0.094 µg/mL | fractional inhibitory concentration index (FICI) (Escherichia coli [10]): 0.094 | MIC (Escherichia coli [11]): 12 µg/mL (≈ 16 µM) | MIC (Escherichia coli [12]): 1 µg/mL | MIC (Escherichia coli [13]): 0.125 µg/mL | fractional inhibitory concentration index (FICI) (Escherichia coli [14]): 0.126 | MIC (Klebsiella pneumoniae [15]): 12 µg/mL (≈ 16 µM) | MIC (Klebsiella pneumoniae [16]): 4 µg/mL | MIC (Klebsiella pneumoniae [17]): 1 µg/mL | fractional inhibitory concentration index (FICI) (Klebsiella pneumoniae [18]): 0.167 | MIC (Enterobacter cloacae [19]): 48 µg/mL (≈ 64.2 µM) | MIC (Enterobacter cloacae [20]): 16 µg/mL | MIC (Enterobacter cloacae [21]): 0.5 µg/mL | fractional inhibitory concentration index (FICI) (Enterobacter cloacae [22]): 0.135 | MIC (Acinetobacter baumannii [23]): 8 µg/mL (≈ 10.7 µM) | MIC (Acinetobacter baumannii [24]): 0.75 µg/mL | MIC (Acinetobacter baumannii [25]): 0.5 µg/mL | fractional inhibitory concentration index (FICI) (Acinetobacter baumannii [26]): 0.156 | Ratio (Escherichia coli [27]): 84 | Ratio (Escherichia coli [28]): 64 | Ratio (Klebsiella pneumoniae [29]): 6 | Ratio (Enterobacter cloacae [30]): 64 | Ratio (Acinetobacter baumannii [31]): 12

CO[C@H]1/C=C/O[C@@]2(C)Oc3c(C)c(O)c4c(O)c(c(/C=N/N5CCN(C)CC5)c(O)c4c3C2=O)NC(=O)/C(C)=C\C=C\[C@H](C)[C@H](O)[C@@H](C)[C@@H](O)[C@@H](C)[C@H](OC(C)=O)[C@@H]1C [RIFAMPIN]
MIC (Escherichia coli [1]): 8 µg/mL (≈ 9.72 µM) | MIC (Escherichia coli [2]): 4 µg/mL | MIC (Escherichia coli [3]): 1 µg/mL | MIC (Escherichia coli [4]): 0.25 µg/mL | MIC (Escherichia coli [5]): 0.063 µg/mL | MIC (Escherichia coli [6]): 0.031 µg/mL | MIC (Escherichia coli [7]): 4 µg/mL (≈ 4.86 µM) | MIC (Escherichia coli [8]): 0.64 µg/mL | MIC (Escherichia coli [9]): 0.016 µg/mL | fractional inhibitory concentration index (FICI) (Escherichia coli [10]): 0.126 | MIC (Escherichia coli [11]): 4 µg/mL (≈ 4.86 µM) | MIC (Escherichia coli [12]): 0.19 µg/mL | MIC (Escherichia coli [13]): 0.047 µg/mL | fractional inhibitory concentration index (FICI) (Escherichia coli [14]): 0.111 | MIC (Klebsiella pneumoniae [15]): 12 µg/mL (≈ 14.6 µM) | MIC (Klebsiella pneumoniae [16]): 1 µg/mL | MIC (Klebsiella pneumoniae [17]): 0.5 µg/mL | MIC (Enterobacter cloacae [19]): 6 µg/mL (≈ 7.29 µM) | MIC (Enterobacter cloacae [20]): 1.5 µg/mL | MIC (Enterobacter cloacae [21]): 0.016 µg/mL | fractional inhibitory concentration index (FICI) (Enterobacter cloacae [22]): 0.126 | MIC (Acinetobacter baumannii [23]): 1.5 µg/mL (≈ 1.82 µM) | MIC (Acinetobacter baumannii [24]): 0.19 µg/mL | MIC (Acinetobacter baumannii [25]): 0.094 µg/mL | fractional inhibitory concentration index (FICI) (Acinetobacter baumannii [26]): 0.131

CC(=O)N[C@H](C(=O)N[C@H](CO)C(=O)N[C@H]1CCNC(=O)[C@H]([C@@H](C)O)NC(=O)[C@H](CCN)NC(=O)[C@H](CCN)NC(=O)[C@H](CC(C)C)NC(=O)[C@@H](Cc2ccccc2)NC(=O)[C@H](CCN)NC1=O)[C@@H](C)O [SPR-741] (Ac-T[dS][Dab][Dab][dF]L[Dab][Dab]T; lactam 3-C)
Activity (V79): Non-toxic | concentration at 10 min [32]: 3130 ng/mL | half-life [33]: 32.7 min | Vd [34]: 0.243 L/kg | clearance [35]: 7.39 mL/min/kg | dose excreted [36]: 50.9% | CL renal [37]: 3.78 mL/min/kg | inhibition zone (IZ) (Escherichia coli [38]): 12 mm2 | inhibition zone (IZ) (Escherichia coli [39]): 230 mm2 | inhibition zone (IZ) (Acinetobacter baumannii [40]): 9 mm2 | inhibition zone (IZ) (Acinetobacter baumannii [41]): 223 mm2 | inhibition zone (IZ) (Pseudomonas aeruginosa [42]): 4 mm2 | inhibition zone (IZ) (Pseudomonas aeruginosa [43]): 20 mm2 | MIC (Escherichia coli [44]): 16 µg/mL (≈ 16.1 µM) | Activity (Enterobacter cloacae [45]): Active

COLISTIN
t1/2 (Rattus norvegicus [46]): 74.6 min | Vd (Rattus norvegicus [47]): 0.496 L/kg | Drug uptake (Rattus norvegicus [48]): 0.18%
